According to article PMC8621456, “New Investigations with Lupane Type A-Ring Azepane Triterpenoids for Antimycobacterial Drug Candidate Design” (International Journal of Molecular Sciences, 2021):
≈ marks a conversion by molar mass, not a printed value. Read-outs that look alike come from different tables or passages of the source. Marks after values point to notes of the source that are not given here.

Legend:
[1] = tested on: M. tuberculosis strain H37Rv; format: cell-based, Mycobacterium tuberculosis; details: 2× the MIC
[2] = tested on: H37Rv (rpoB^S450L); details: cited from earlier work
[3] = tested on: H37Rv (gyrA^D94K); details: cited from earlier work
[4] = tested on: H37Rv (rpoB^S450L); format: cell-based, Mycobacterium tuberculosis
[5] = tested on: H37Rv (katG^del); test: microbe, parasite or virus in culture; format: cell-based; details: Mycobacterium tuberculosis, isoniazid mono-resistant strain
[6] = tested on: H37Rv (gyrA^D94K); format: cell-based, Mycobacterium tuberculosis

| Compound | FoR (order of magnitude stated in text) [1] | MIC (µM) H37Rv (rpoB^S450L) [2] | MIC (µM) H37Rv (gyrA^D94K) [3] | MIC (µM) H37Rv (rpoB^S450L) [4] [µM] | MIC [5] [µM] | MIC (µM) H37Rv (gyrA^D94K) [6] [µM] |
| --- | --- | --- | --- | --- | --- | --- |
| C=C(C)[C@@H]1CC[C@]2(CO)CC[C@]3(C)[C@H](CC[C@@H]4[C@@]5(C)CCCNC(C)(C)[C@@H]5CC[C@]43C)[C@@H]12 [Compound 1, azepanobetulin] | 10^−6 | 4 * µM | 4 * µM |  |  |  |
| C=C(C)[C@@H]1CC[C@]2(C)CC[C@]3(C)[C@H](CC[C@@H]4[C@@]5(C)CCCNC(C)(C)[C@@H]5CC[C@]43C)[C@@H]12 [Compound 2, azepano-lupeol] |  |  |  | 4 (≈ 1.7 µg/mL) | 4 (≈ 1.7 µg/mL) | 4 (≈ 1.7 µg/mL) |
| C=C(C)[C@@H]1CC[C@]2(CN)CC[C@]3(C)[C@H](CC[C@@H]4[C@@]5(C)CCCNC(C)(C)[C@@H]5CC[C@]43C)[C@@H]12 [Compound 3] |  |  |  | 4 (≈ 1.76 µg/mL) | 4 (≈ 1.76 µg/mL) | 8 (≈ 3.53 µg/mL) |
| C=C(C)[C@@H]1CC[C@]2(COC(=O)c3ccccc3C(=O)O)CC[C@]3(C)[C@H](CC[C@@H]4[C@@]5(C)CCCNC(C)(C)[C@@H]5CC[C@]43C)[C@@H]12 [Compound 4] |  |  |  | 8 (≈ 4.72 µg/mL) | 8 (≈ 4.72 µg/mL) | 16 (≈ 9.44 µg/mL) |
| C=C(C)[C@@H]1CC[C@]2(COC(=O)c3cccnc3)CC[C@]3(C)[C@H](CC[C@@H]4[C@@]5(C)CCCNC(C)(C)[C@@H]5CC[C@]43C)[C@@H]12 [Compound 5] |  |  |  | 8 (≈ 4.37 µg/mL) | 4 (≈ 2.19 µg/mL) | 8 (≈ 4.37 µg/mL) |
| C=C(C)[C@@H]1CC[C@]2(COS(=O)(=O)c3ccc(C)cc3)CC[C@]3(C)[C@H](CC[C@@H]4[C@@]5(C)CCCNC(C)(C)[C@@H]5CC[C@]43C)[C@@H]12 [Compound 6] |  |  |  | 4 (≈ 2.38 µg/mL) | 4 (≈ 2.38 µg/mL) | 4 (≈ 2.38 µg/mL) |
| C=C(C)[C@@H]1CC[C@]2(C=NNC(=O)c3ccncc3)CC[C@]3(C)[C@H](CC[C@@H]4[C@@]5(C)CCCNC(C)(C)[C@@H]5CC[C@]43C)[C@@H]12 [Compound 7] |  |  |  | 0.5 (≈ 0.279 µg/mL) | 8 (≈ 4.47 µg/mL) | 0.5 (≈ 0.279 µg/mL) |
| C=C(C)[C@@H]1CC[C@]2(C(=O)NC(CO)Cc3ccccc3)CC[C@]3(C)[C@H](CC[C@@H]4[C@@]5(C)CCCNC(C)(C)[C@@H]5CC[C@]43C)[C@@H]12 (some centres unmarked) [Compound 8] |  |  |  | 4 (≈ 2.36 µg/mL) | 4 (≈ 2.36 µg/mL) | 4 (≈ 2.36 µg/mL) |
| C=C(C)[C@@H]1CC[C@]2(C(=O)N3CCN(C)CC3)CC[C@]3(C)[C@H](CC[C@@H]4[C@@]5(C)CCCNC(C)(C)[C@@H]5CC[C@]43C)[C@@H]12 [Compound 9] |  |  |  | 2 (≈ 1.08 µg/mL) | 1 (≈ 0.538 µg/mL) | 2 (≈ 1.08 µg/mL) |
| C=C(C)[C@@H]1CC[C@]2(C(=O)NC3CCCCC3)CC[C@]3(C)[C@H](CC[C@@H]4[C@@]5(C)CCCNC(C)(C)[C@@H]5CC[C@]43C)[C@@H]12 [Compound 10] |  |  |  | 4 (≈ 2.15 µg/mL) | 4 (≈ 2.15 µg/mL) | 4 (≈ 2.15 µg/mL) |
| C=C(C)[C@@H]1CC[C@]2(COC(C)=O)CC[C@]3(C)[C@H](CC[C@@H]4[C@@]5(C)CCCN(C(C)=O)C(C)(C)[C@@H]5CC[C@]43C)[C@@H]12 [Compound 11] |  |  |  | 4 (≈ 2.1 µg/mL) |  | 8 (≈ 4.21 µg/mL) |
| C=C(C)[C@@H]1CC[C@]2(COC(C)=O)CC[C@]3(C)[C@H](CC[C@@H]4[C@@]5(C)CCCN(C(=O)c6cccnc6)C(C)(C)[C@@H]5CC[C@]43C)[C@@H]12 [Compound 12] |  |  |  | 32 (≈ 18.8 µg/mL) |  | >32 |
| CC(=O)[C@@H]1CC[C@]2(COS(=O)(=O)c3ccc(C)cc3)CC[C@]3(C)[C@H](CC[C@@H]4[C@@]5(C)CCCNC(C)(C)[C@@H]5CC[C@]43C)[C@@H]12 [Compound 13] |  |  |  | 8 (≈ 4.78 µg/mL) | 8 (≈ 4.78 µg/mL) | 16 (≈ 9.57 µg/mL) |
| C=C(CBr)[C@@H]1CC[C@]2(COC(C)=O)CC[C@]3(C)[C@H](CC[C@@H]4[C@@]5(C)CCCNC(C)(C)[C@@H]5CC[C@]43C)[C@@H]12 [Compound 14] |  |  |  | >32 | 16 (≈ 9 µg/mL) | >32 |
| C=C(CN=[N+]=[N-])[C@@H]1CC[C@]2(COC(C)=O)CC[C@]3(C)[C@H](CC[C@@H]4[C@@]5(C)CCCNC(C)(C)[C@@H]5CC[C@]43C)[C@@H]12 [Compound 15] |  |  |  | >32 | 32 (≈ 16.8 µg/mL) | >32 |
| CC1(C)CCC23CCC4(C)C(CCC5C6(C)CCCNC(C)(C)C6CCC54C)C2C1OC3 (centres unmarked) [Compound 17] |  |  |  | 8 (≈ 3.53 µg/mL) | 8 (≈ 3.53 µg/mL) | 16 (≈ 7.07 µg/mL) |
| CC(C)=C1CCC=C2CC[C@]3(C)[C@H](CC[C@@H]4[C@@]5(C)CCCNC(C)(C)[C@@H]5CC[C@]43C)[C@H]21 [Compound 18] | 10^−6 |  |  | 16 (≈ 6.78 µg/mL) |  | 8 (≈ 3.39 µg/mL) |
| C#CCNC(=O)[C@]12CC[C@@H](C(=C)C)[C@@H]1[C@H]1CC[C@@H]3[C@@]4(C)CCCNC(C)(C)[C@@H]4CC[C@@]3(C)[C@]1(C)CC2 [Compound 20, 17-(Propargyl)-3-deoxo-3a-homo-3a-aza-lup-20(29)-en-carboxamide] |  |  |  | 8 (≈ 3.94 µg/mL) | 4 (≈ 1.97 µg/mL) | 4 (≈ 1.97 µg/mL) |
| NNC(=O)c1ccncc1 [Isoniazid, reference compound] | 10^−4 |  |  | 0.06 (≈ 0.00823 µg/mL) | > 2 | 0.06 (≈ 0.00823 µg/mL) |
| COc1c(N2C[C@@H]3CCCN[C@@H]3C2)c(F)cc2c(=O)c(C(=O)O)cn(C3CC3)c12 [Moxifloxacin, reference compound] |  |  |  | 0.03 (≈ 0.012 µg/mL) | 0.03 (≈ 0.012 µg/mL) | >2 |
| O=[N+]([O-])c1cn2c(n1)OC[C@@H](OCc1ccc(OC(F)(F)F)cc1)C2 [Pretomanid, reference compound] |  |  |  | 0.06 (≈ 0.0216 µg/mL) | 0.06 (≈ 0.0216 µg/mL) | 0.125 (≈ 0.0449 µg/mL) |
| CO[C@H]1/C=C/O[C@@]2(C)Oc3c(C)c(O)c4c(O)c(c(/C=N/N5CCN(C)CC5)c(O)c4c3C2=O)NC(=O)/C(C)=C\C=C\[C@H](C)[C@H](O)[C@@H](C)[C@@H](O)[C@@H](C)[C@H](OC(C)=O)[C@@H]1C [Rifampin, reference compound] |  |  |  | >1 | ≤ 0.004 | ≤0.004 |
